One test concerns the target TrkA (Homo sapiens (Human), UniProt P04629). The experiment in a line: TrkA activity, off-chip mobility shift assay (LabChip 3000). It counts as biochemical. The conditions noted are these: 55 μM ATP (ATP Km); n/d = none detected. The source says: (§1) Reagents and consumables were purchased from Sigma Aldrich, Carna Biosciences, or Caliper Life Sciences. All assay reaction conditions for IC50 determinations were within the linear range with respect to time and enzyme concentration. […] The LabChip 3000 separates and measures the fluorescent signal of fluorescein labeled peptide substrate and fluorescein labeled peptide product present in each well. Results are expressed as percent conversion by measuring peak height for both the substrate and product and dividing the product peak height by the sum of peak heights for both substrate and product.

The target in the next test is TrkB (Homo sapiens (Human), UniProt Q16620). The experiment in a line: TrkB activity, off-chip mobility shift assay (LabChip 3000). Type of test: biochemical. The conditions noted are these: 70 μM ATP (ATP Km); n/d = none detected.
TrkB, sequence (Q16620 32-822): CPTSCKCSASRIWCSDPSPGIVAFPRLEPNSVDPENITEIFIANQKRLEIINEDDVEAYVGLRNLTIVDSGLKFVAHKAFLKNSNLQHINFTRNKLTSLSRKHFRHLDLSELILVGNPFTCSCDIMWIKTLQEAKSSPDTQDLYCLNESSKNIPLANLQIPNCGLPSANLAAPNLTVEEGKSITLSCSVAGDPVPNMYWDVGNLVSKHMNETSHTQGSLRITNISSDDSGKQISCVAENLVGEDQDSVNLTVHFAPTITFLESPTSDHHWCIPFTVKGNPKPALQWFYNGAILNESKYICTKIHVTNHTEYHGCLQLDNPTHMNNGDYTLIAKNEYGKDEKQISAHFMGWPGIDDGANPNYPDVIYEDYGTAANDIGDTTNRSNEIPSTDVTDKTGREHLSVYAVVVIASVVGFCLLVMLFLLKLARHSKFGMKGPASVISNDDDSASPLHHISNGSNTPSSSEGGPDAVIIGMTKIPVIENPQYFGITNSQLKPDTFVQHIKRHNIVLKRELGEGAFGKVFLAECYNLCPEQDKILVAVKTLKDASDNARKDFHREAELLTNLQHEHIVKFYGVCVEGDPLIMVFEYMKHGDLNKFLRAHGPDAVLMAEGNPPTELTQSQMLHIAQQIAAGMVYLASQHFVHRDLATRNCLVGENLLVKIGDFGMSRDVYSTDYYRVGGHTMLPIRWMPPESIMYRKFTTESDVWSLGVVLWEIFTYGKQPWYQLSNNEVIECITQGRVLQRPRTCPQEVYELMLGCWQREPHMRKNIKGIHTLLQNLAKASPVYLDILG
Text: as §1

Here are results for 27 compounds from US9067914B1, “Tropomyosin-related kinase (TRK) inhibitors” (Genzyme Corporation, priority 2013, dated 2015).

TrkA, sequence (P04629 33-796): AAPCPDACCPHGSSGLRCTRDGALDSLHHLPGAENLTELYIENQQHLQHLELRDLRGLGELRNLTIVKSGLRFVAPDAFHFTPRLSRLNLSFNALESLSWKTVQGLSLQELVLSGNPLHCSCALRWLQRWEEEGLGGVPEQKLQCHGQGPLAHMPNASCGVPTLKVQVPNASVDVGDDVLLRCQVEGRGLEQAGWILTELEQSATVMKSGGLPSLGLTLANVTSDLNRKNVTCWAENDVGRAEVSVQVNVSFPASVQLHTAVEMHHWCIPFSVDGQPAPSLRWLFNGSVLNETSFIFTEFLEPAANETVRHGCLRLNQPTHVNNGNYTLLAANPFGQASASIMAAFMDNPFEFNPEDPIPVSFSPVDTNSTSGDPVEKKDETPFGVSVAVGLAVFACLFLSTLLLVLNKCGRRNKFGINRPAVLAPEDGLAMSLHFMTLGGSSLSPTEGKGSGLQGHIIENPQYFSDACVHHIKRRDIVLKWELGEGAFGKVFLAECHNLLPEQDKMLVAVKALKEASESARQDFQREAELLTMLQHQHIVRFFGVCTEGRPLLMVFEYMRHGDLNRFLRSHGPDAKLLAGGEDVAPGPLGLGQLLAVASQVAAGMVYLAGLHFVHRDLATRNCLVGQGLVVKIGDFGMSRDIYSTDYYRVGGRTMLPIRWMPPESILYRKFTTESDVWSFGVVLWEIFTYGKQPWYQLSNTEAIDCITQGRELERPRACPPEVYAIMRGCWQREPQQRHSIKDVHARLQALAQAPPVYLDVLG

Turning to `COc1ccc(COc2ccc(Cn3cnc4cc(-c5nnc(C6CCNCC6)o5)cnc43)cc2OC)cn1` [Ex. 3-23, 2-(3-(3-Methoxy-4-((6-methoxypyridin-3-yl)methoxy)benzyl)-3H-imidazo[4,5-b]pyridin-6-yl)-5-(piperidin-4-yl)-1,3,4-oxadiazole], the IC50 at TrkA was determined as 51 nM; on TrkB it was 57 nM.
For `COc1ccc(COc2ccc(Cn3cnc4cc(-n5cc(C(C)(C)N)nn5)cnc43)cc2OC)cn1` [Ex. 3-24, 2-(1-(3-(3-Methoxy-4-((6-methoxypyridin-3-yl)methoxy)benzyl)-3H-imidazo[4,5-b]pyridin-6-yl)-1H-1,2,3-triazol-4-yl)propan-2-amine] the same measures were 88 nM and 43 nM.
With `COc1ccc(COc2ccc(Cn3cnc4cc(-n5cc(C6CCCNC6)nn5)cnc43)cc2OC)cn1` (stereo not drawn) [Ex. 3-25, 3-(3-Methoxy-4-((6-methoxypyridin-3-yl)methoxy)benzyl)-6-(4-(piperidin-3-yl)-1H-1,2,3-triazol-1-yl)-3H-imidazo[4,5-b]pyridine], the values for the 50% inhibitory concentration (IC50) on TrkA and on TrkB were 32 nM and 18 nM, respectively.
Taken in the same sequence, the figures for `COc1ccc(COc2ccc(Cn3c(N)nc4cc(N5CCN(C)CC5)ccc43)cc2OC)cn1` [Ex. 3-26, 1-(3-methoxy-4-((6-methoxypyridin-3-yl)methoxy)benzyl)-5-(4-methylpiperazin-1-yl)-1H-benzo[d]imidazol-2-amine] were 590 nM and 315 nM.
With `COc1ccc(COc2cc(F)c(Cn3cnc4cc(N5CCN(C)CC5)ccc43)cc2OC)cn1` [Ex. 3-27, 1-(2-fluoro-5-methoxy-4-((6-methoxypyridin-3-yl)methoxy)benzyl)-5-(4-methylpiperazin-1-yl)-1H-benzo[d]imidazole], the IC50 at TrkA was determined as 852 nM; at TrkB, 305 nM.
For `COc1ccc(COc2ccc(Cn3cnc4cc(N5CCN(C)CC5=O)ccc43)cc2OC)cn1` [Ex. 3-29, 1-(1-(3-Methoxy-4-((6-methoxypyridin-3-yl)methoxy)benzyl)-1H-benzo[d]imidazol-5-yl)-4-methylpiperazin-2-one] the same measures were 6020 nM and 4280 nM.
`COc1ccc(COc2ccc(Cn3cnc4cc(C5=CC6(C)CCCN5C6)cnc43)cc2OC)cn1` (stereo not drawn) [Ex. 3-30, 3-(3-Methoxy-4-((6-methoxypyridin-3-yl)methoxy)benzyl)-6-(5-methyl-1-azabicyclo[3.2.1]oct-6-en-7-yl)-3H-imidazo[4,5-b]pyridine]: the IC50 at TrkA came out at 201 nM; at TrkB, 118 nM.
Taken in the same sequence, the figures for `COc1ccc(COc2ccc(Cn3cnc4cc(C5=CC6(C)CCCN5C6)ccc43)cc2OC)cn1` (stereo not drawn) [Ex. 3-31, 1-(3-methoxy-4-((6-methoxypyridin-3-yl)methoxy)benzyl)-5-(5-methyl-1-azabicyclo[3.2.1]oct-6-en-7-yl)-1H-benzo[d]imidazole] were 1480 nM and 889 nM.
Taken in the same sequence, the figures for `COc1ccc(COc2ccc(Cn3cnc4cc(C5=CC6(O)CCCN5C6)cnc43)cc2OC)cn1` (stereo not drawn) [Ex. 3-32, 7-(3-(3-methoxy-4-((6-methoxypyridin-3-yl)methoxy)benzyl)-3H-imidazo[4,5-b]pyridin-6-yl)-1-azabicyclo[3.2.1]oct-6-en-5-ol] were 360 nM and 150 nM.
Consider `COc1ccc(COc2ccc(Cn3cnc4cc(C5=CC6(O)CCCN5C6)ccc43)cc2OC)cn1` (stereo not drawn) [Ex. 3-33, 7-(1-(3-Methoxy-4-((6-methoxypyridin-3-yl)methoxy)benzyl)-1H-benzo[d]imidazol-5-yl)-1-azabicyclo[3.2.1]oct-6-en-5-ol], for which the figures for the IC50 on TrkA and at TrkB were 1160 nM and 372 nM, respectively.
For `COc1ccc(COc2ccc(Cn3c(N)nc4cc(-c5cnn(C)c5)cnc43)cc2OC)cn1` [Ex. 3-35-1, 3-(3-methoxy-4-((6-methoxypyridin-3-yl)methoxy)benzyl)-6-(1-methyl-1H-pyrazol-4-yl)-3H-imidazo[4,5-b]pyridin-2-amine] the same measures were 0.6 nM and 0.3 nM.
For `COc1cc(Cn2c(N)nc3cc(-c4cnn(C)c4)cnc32)ccc1OCc1ccc(C(F)(F)F)nc1` [Ex. 3-35-2, 3-(3-methoxy-4-((6-(trifluoromethyl)pyridin-3-yl)methoxy)benzyl)-6-(1-methyl-1H-pyrazol-4-yl)-3H-imidazo[4,5-b]pyridin-2-amine] the same measures were 0.2 nM and 0.2 nM.
Regarding `COc1cc(Cn2c(N)nc3cc(-c4cnn(C)c4)cnc32)ccc1OCc1ccc(C(F)(F)F)cc1` [Ex. 3-35-3, 3-(3-methoxy-4-((4-(trifluoromethyl)benzyl)oxy)benzyl)-6-(1-methyl-1H-pyrazol-4-yl)-3H-imidazo[4,5-b]pyridin-2-amine], the IC50 on TrkA came to 0.2 nM; on TrkB it was 0.3 nM.
For `COc1cc(Cn2c(N)nc3cc(-c4cnn(C)c4)cnc32)ccc1OCc1ccc(C2CC2)nc1` [Ex. 3-35-4, 3-(4-((6-cyclopropylpyridin-3-yl)methoxy)-3-methoxybenzyl)-6-(1-methyl-1H-pyrazol-4-yl)-3H-imidazo[4,5-b]pyridin-2-amine] the same measures were 0.2 nM and 0.2 nM.
`COc1cc(Cn2c(N)nc3cc(-c4cnn(C)c4)cnc32)ccc1OCc1csc(C)n1` [Ex. 3-35-5, 3-(3-methoxy-4-((2-methylthiazol-4-yl)methoxy)benzyl)-6-(1-methyl-1H-pyrazol-4-yl)-3H-imidazo[4,5-b]pyridin-2-amine]: the IC50 at TrkA was 0.5 nM; at TrkB, 0.2 nM.
Taken in the same sequence, the figures for `COc1ccc(COc2ccc(Cn3c(N)nc4cc(-c5ccccc5)cnc43)cc2OC)cn1` [Ex. 3-36, 3-(3-methoxy-4-((6-methoxypyridin-3-yl)methoxy)benzyl)-6-phenyl-3H-imidazo[4,5-b]pyridin-2-amine] were 6 nM and 4 nM.
In the case of `COc1ccc(COc2ccc(Cn3c(N)nc4cc(-c5ccc(F)cc5)cnc43)cc2OC)cn1` [Ex. 3-37-1, 6-(4-fluorophenyl)-3-(3-methoxy-4-((6-methoxypyridin-3-yl)methoxy)benzyl)-3H-imidazo[4,5-b]pyridin-2-amine], the figures for the IC50 at TrkA and at TrkB were 9 nM and 4 nM, respectively.
Taken in the same sequence, the figures for `COc1ccc(COc2ccc(Cn3c(N)nc4cc(-c5ccn(C)n5)cnc43)cc2OC)cn1` [Ex. 3-37-2, 3-(3-methoxy-4-((6-methoxypyridin-3-yl)methoxy)benzyl)-6-(1-methyl-1H-pyrazol-3-yl)-3H-imidazo[4,5-b]pyridin-2-amine] were 3 nM and 2 nM.
`COc1ccc(COc2ccc(Cn3c(N)nc4cc(-c5cncnc5)cnc43)cc2OC)cn1` [Ex. 3-37-3, 3-(3-methoxy-4-((6-methoxypyridin-3-yl)methoxy)benzyl)-6-(pyrimidin-5-yl)-3H-imidazo[4,5-b]pyridin-2-amine]: the results for the concentration for half-maximal inhibition (IC50) at TrkA and on TrkB were 51 nM and 16 nM, respectively.
`COc1ccc(COc2ccc(Cn3c(N)nc4cc(-c5c(C)nn(C)c5C)cnc43)cc2OC)cn1` [Ex. 3-37-4, 3-(3-methoxy-4-((6-methoxypyridin-3-yl)methoxy)benzyl)-6-(1,3,5-trimethyl-1H-pyrazol-4-yl)-3H-imidazo[4,5-b]pyridin-2-amine]: the IC50 at TrkA was 14 nM; at TrkB, 13 nM.
For `COc1ccc(COc2ccc(Cn3c(N)nc4cc(-c5ccncc5)cnc43)cc2OC)cn1` [Ex. 3-37-5, 3-(3-methoxy-4-((6-methoxypyridin-3-yl)methoxy)benzyl)-6-(pyridin-4-yl)-3H-imidazo[4,5-b]pyridin-2-amine] the same measures were 2 nM and 0.7 nM.
For `COc1ccc(COc2ccc(Cn3c(N)nc4cc(-c5cccnc5)cnc43)cc2OC)cn1` [Ex. 3-37-6, 3-(3-methoxy-4-((6-methoxypyridin-3-yl)methoxy)benzyl)-6-(pyridin-3-yl)-3H-imidazo[4,5-b]pyridin-2-amine] the same measures were 5 nM and 2 nM.
For `COc1ccc(COc2ccc(Cn3c(N)nc4cc(-c5ccccn5)cnc43)cc2OC)cn1` [Ex. 3-38, 3-(3-methoxy-4-((6-methoxypyridin-3-yl)methoxy)benzyl)-6-(pyridin-2-yl)-3H-imidazo[4,5-b]pyridin-2-amine] the same measures were 4 nM and 2 nM.
On to `COc1cc(Cn2c(N)nc3cc(-c4cnn(C)c4)cnc32)ccc1OCc1ccc(C(F)(F)C(F)(F)F)cc1` [Ex. 3-39, 3-(3-methoxy-4-((4-(perfluoroethyl)benzyl)oxy)benzyl)-6-(1-methyl-1H-pyrazol-4-yl)-3H-imidazo[4,5-b]pyridin-2-amine], for which the IC50 at TrkA came out at 0.3 nM; at TrkB, 0.6 nM.
Taken in the same sequence, the figures for `COc1cc(Cn2c(N)nc3cc(-c4cnn(C)c4)cnc32)ccc1OCc1ccc(OC(F)(F)F)cc1` [Ex. 3-40-1, 3-(3-methoxy-4-((4-(trifluoromethoxy)benzyl)oxy)benzyl)-6-(1-methyl-1H-pyrazol-4-yl)-3H-imidazo[4,5-b]pyridin-2-amine] were 0.2 nM and 0.2 nM.
For `COc1cc(Cn2c(N)nc3cc(-c4cnn(C)c4)cnc32)ccc1OCc1ccc(SC(F)(F)F)cc1` [Ex. 3-40-2, 3-(3-methoxy-4-((4-((trifluoromethyl)thio)benzyl)oxy)benzyl)-6-(1-methyl-1H-pyrazol-4-yl)-3H-imidazo[4,5-b]pyridin-2-amine] the same measures were 0.2 nM and 0.6 nM.
For `COc1cc(Cn2c(N)nc3cc(-c4cnn(C)c4)cnc32)ccc1OCc1ccc(C(C)C)nc1` [Ex. 3-40-3, 3-(4-((6-isopropylpyridin-3-yl)methoxy)-3-methoxybenzyl)-6-(1-methyl-1H-pyrazol-4-yl)-3H-imidazo[4,5-b]pyridin-2-amine], the IC50 at TrkA and at TrkB was 0.2 nM each time.

A word on the IC50: it is the concentration needed to halve the response being measured.
